According to patent publication US20230203031A1, “COMPOUNDS USEFUL FOR INHIBITING CDK7” (Eli Lilly and Company, priority 2020, published 2023):
Like-named read-outs stand apart in the source and are kept apart here.

Experiments:
[1] = test system: phosphoCTD (S2) in HCT116 cells; assay: Phospho-carboxyl terminal domain (Ser2) p-CTD (S2) cell based Acumen assay; conditions: read-out: relative IC50 for phosphoCTD (S2)
Description: HCT116 cells (ATCC CCL-247) are cultured in McCoy’s 5 Å Medium Modified media supplemented with 10% FBS, 1% NaPyr, and 1% Pen/Strep and plated (prior to becoming 70% confluent) in 96-well flat-bottom plates at a density of 5,000 cells per well in 100 µL volume. The cells are then incubated overnight in a cell culture incubator (5% CO2, 95% Relative Humidity (RH) and 37° C.) and allowed to attach to the plate. The following morning the cells are dosed with compounds. Compound inhibitors are first solubilized at 60 µM in culture medium containing 0.6% DMSO. Subsequently compound serial dilutions (1:3) are prepared over a 60 µM to 0.003 µM range. Cells are dosed with the addition of 50 µL from serial dilution plate to assay plate containing cells attached with 100 µL of media producing a final DMSO concentration of 0.2% with a final compound concentration dose range between 20 and 0.001 µM. For max point media containing 0.2% of DMSO is used and for min point, a reference compound diluted at 0.83 µM final concentration in the growth media containing 0.2% DMSO is used. After dosing with compounds, the cell plates are incubated at 37° C. and 5% CO2 for 4 hours. The growth media is removed carefully and the cells are fixed by adding 100 µL of 4% para-formaldehyde for 30 minutes at RT. Cells are washed once with PBS and incubated with 100 µL of cold MeOH for 15 minutes at RT for cell permeation. Cells are washed twice with PBS (100 µL/each) and blocked with 100 µL/well of 1% BSA/PBS for 30 minutes at RT. 50 µL of 1:1000 primary antibody (Anti-phospho CTD Ser2 Abcam, cat# ab5095-100) dilution in 1% BSA/PBS are added per well, the plates are sealed and incubated overnight at 4° C.
The following day cells are washed three times with PBS (100 µL/well) and incubated with 50 µL/well of secondary antibody (1:2000 dilution, Goat anti-rabbit IgM ALEXA FLUOR™ 488) in PBS for 1 hour at RT. After washing 3X with PBS (100 µL/well), 100 µL of 50 µg/mL RNAase and 1:1000 propidium iodide dilution in PBS are added per well. Plates are sealed and incubated 1 hour at RT on the bench (preserved from light). Plates are analyzed on Acumen on FL2 (mean intensity) and FL3 (total intensity). Fluorescence plates are scanned with ACUMEN EXPLORER™ [Laser-scanning fluorescence microplate cytometer manufactured by TTP LABTECH LTD] to measure anti-phospho-carboxyl terminal domain at Serine 2 (pCTD). Image analysis is based on cellular fluorescent signals for identifying positive cells. pCTD (S2) positive cells are identified by mean intensity at 500-530 above the threshold. Total intensity at 575-640 from propidium iodide/DNA is used to identify individual cells. Assay output is % pCTD positive cells.
The IC50 is determined by curve fitting to a four parameter logistic for each output using GENE DATA™.

[2] = target: CDK9/cyclinT1 (Homo sapiens, UniProt P50750); assay: Assay for inhibition of CDK9/CyclinT1 kinase activity (radiolabel filter binding); conditions: IC50 for CDK9 (3 hours preincubation), 100 µM ATP
[3] = test system: cMyc in HCT116 cells; assay: cMyc cell based Acumen assay; conditions: read-out: Relative IC50 for cMyc
Description: HCT116 cells (ATCC CCL-247) are cultured in McCoy’s 5 Å Medium Modified media supplemented with 10% FBS, 1% NaPyr, and 1% Pen/Strep and plated (prior to becoming 70% confluent) in 96-well flat-bottom plates at a density of 5,000 cells per well in 100 µL volume. The cells are then incubated overnight in a cell culture incubator (5% CO2, 95% Relative Humidity (RH), and 37° C.) and allowed to attach to the plate. The following morning the cells are dosed with compounds. Compound inhibitors are solubilized at 60 µM in culture medium containing 0.6% DMSO. Subsequently, compound serial dilutions (1:3) are prepared over a 60 µM to 0.003 µM range. Cells are dosed with the addition of 50 µL from serial dilution plate to assay plate containing cell attached with 100 µL of media producing a final DMSO concentration of 0.2% with a final compound concentration dose range between 20 µM and 0.001 µM. For max point media containing 0.2% of DMSO is used and for min point, a reference compound diluted at 0.83 µM final concentration in the growth media containing 0.2% DMSO is used. After dosing with compounds, the cell plates are incubated at 37° C. and 5% CO2 for 4 hours. Growth media is removed carefully and the cells are fixed by adding 100 µL of 4% para-formaldehyde for 30 minutes at RT. Cell are washed once with PBS and incubated with 100 µL of cold MeOH for 15 minutes at RT for cell permeation. Again cell are washed twice with PBS (100 µL/each) and blocked with 100 µL/well of 1% BSA/PBS for 30 minutes at RT. 50 µL of 1:1000 primary antibody (Anti-c-Myc antibody [Y69] Abcam cat# ab32072) dilution in 1% BSA/PBS are added per well, the plates sealed and incubated overnight at 4° C. The following day cells are washed three times with PBS (100 µL/well) and incubated with 50 µL/well of secondary antibody (1:2000 dilution, Goat anti-rabbit IgM ALEXA FLUOR™ 488) in PBS for 1 hour at RT. After wash 3× with PBS (100 µL/well), 100 µL of 50 µg/mL RNAase and 1:1000 propidium iodide (Invitrogene) dilution in PBS are added per well. Plates are sealed and incubated for 1 hour at RT on the bench (preserved from light). Plates are analyzed on Acumen on FL2 (mean intensity), and FL3 (total intensity). Fluorescence Plates are scanned with ACUMEN EXPLORER™ [Laser-scanning fluorescence microplate cytometer manufactured by TTP LABTECH LTD] to measure anti-phospho-carboxyl terminal domain at Serine 5 (pCTD). Image analysis is based on cellular fluorescent signals for identifying positive cells. pCTD (S5) positive cells are identified by mean intensity at 500-530 above the threshold. Total intensity at 575-640 from propidium iodide/DNA is used to identify individual cells. Assay output is % pCTD positive cells. The IC50 is determined by curve fitting to a four parameter logistic for each output using GENE DATA™.

[4] = target: CDK7/CyclinH/Mat1 (Homo sapiens, UniProt P50613); assay: Biochemical assay for inhibition of CDK7/CyclinH/MAT1 (radiolabel filter binding); conditions: 100 µM ATP
[5] = IC50 after 3 hours of preincubation of CDK7 enzyme, 3 hours preincubation
[6] = IC50 in CDK7 without preincubation, no preincubation of enzyme with compound

CDK7/CyclinH/Mat1, sequence (P50613 whole entry): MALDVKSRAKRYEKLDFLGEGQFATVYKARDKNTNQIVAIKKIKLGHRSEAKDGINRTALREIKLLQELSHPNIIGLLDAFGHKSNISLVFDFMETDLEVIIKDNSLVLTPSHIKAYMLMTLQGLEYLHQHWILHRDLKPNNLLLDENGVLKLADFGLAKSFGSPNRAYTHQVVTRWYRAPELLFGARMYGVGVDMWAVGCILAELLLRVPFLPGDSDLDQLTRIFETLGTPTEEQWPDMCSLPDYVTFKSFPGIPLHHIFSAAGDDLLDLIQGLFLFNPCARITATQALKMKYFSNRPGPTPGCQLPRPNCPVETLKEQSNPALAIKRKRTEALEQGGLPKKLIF
CDK7/CyclinH/Mat1, sequence (P51946 whole entry partner): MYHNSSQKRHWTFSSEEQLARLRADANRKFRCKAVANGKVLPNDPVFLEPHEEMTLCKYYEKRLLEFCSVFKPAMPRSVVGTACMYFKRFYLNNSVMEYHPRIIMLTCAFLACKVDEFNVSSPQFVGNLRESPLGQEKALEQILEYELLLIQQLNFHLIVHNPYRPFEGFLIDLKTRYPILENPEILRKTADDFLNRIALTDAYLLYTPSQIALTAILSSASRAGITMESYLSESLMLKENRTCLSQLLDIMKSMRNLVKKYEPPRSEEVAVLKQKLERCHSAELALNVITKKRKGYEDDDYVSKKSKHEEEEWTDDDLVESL
CDK7/CyclinH/Mat1, sequence (P51948 whole entry partner): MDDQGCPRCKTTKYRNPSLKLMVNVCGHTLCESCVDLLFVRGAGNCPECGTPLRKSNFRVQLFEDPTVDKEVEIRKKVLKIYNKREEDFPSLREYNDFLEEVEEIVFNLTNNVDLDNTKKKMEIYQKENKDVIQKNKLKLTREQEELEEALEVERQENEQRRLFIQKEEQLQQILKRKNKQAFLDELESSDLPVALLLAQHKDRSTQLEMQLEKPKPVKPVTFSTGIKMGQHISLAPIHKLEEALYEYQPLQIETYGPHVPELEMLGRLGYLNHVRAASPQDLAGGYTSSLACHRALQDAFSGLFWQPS
CDK9/cyclinT1, sequence (P50750 whole entry): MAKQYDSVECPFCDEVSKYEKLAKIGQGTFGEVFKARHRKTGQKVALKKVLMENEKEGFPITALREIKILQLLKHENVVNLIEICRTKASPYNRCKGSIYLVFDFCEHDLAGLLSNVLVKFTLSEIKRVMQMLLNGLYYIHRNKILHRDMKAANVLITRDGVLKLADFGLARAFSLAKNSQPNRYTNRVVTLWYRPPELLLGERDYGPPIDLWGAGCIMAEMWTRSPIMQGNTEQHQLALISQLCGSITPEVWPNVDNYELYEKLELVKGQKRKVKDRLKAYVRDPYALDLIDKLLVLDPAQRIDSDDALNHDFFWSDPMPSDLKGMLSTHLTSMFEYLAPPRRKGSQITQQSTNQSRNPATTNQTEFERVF
CDK9/cyclinT1, sequence (O60563 whole entry partner): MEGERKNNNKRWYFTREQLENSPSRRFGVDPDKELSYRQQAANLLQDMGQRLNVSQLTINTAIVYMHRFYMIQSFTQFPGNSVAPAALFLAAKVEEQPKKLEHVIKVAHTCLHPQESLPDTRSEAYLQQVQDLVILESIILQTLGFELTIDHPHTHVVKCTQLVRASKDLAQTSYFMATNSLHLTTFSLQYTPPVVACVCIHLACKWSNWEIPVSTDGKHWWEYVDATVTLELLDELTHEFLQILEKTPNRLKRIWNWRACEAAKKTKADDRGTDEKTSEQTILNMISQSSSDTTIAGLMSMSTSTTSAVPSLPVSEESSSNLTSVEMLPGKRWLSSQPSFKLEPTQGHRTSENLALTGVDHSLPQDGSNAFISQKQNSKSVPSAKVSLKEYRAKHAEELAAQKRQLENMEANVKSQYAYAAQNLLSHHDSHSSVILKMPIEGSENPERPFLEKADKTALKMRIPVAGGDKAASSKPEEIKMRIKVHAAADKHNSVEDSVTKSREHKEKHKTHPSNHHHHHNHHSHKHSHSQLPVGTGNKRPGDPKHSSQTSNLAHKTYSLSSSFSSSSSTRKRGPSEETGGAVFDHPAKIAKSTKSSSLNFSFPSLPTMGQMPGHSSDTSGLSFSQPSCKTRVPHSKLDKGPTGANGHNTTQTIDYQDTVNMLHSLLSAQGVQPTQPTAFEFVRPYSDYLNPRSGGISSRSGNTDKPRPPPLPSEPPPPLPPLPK

Row | IC50 ([1]; 4 hours) [nM] | IC50 [2] [nM] | IC50 ([3]; 4 hours) [nM] | IC50 [4, 5] [nM] | IC50 [4, 6] [nM] | IC50 ([1]; Homo sapiens, HCT-116, 4 h) [nM] | IC50 ([3]; Homo sapiens, HCT-116, 4 h) [nM] | Compound
1 | 7790 | 7130 | 140 | 41.5 | 367 | – | – | C=CC(=O)N1CCO[C@H](CN2CCC(Nc3cc(C(C)O)cn4c(C(C)C)cnc34)CC2)C1 (single isomer, unassigned) [Example 5]
2 | 3710 | 8050 | 38 | 14.3 | 155 | – | – | C=CC(=O)N1CCO[C@H](CN2CCC(Nc3cc(C(C)O)cn4c(C(C)C)cnc34)CC2)C1 (single isomer, unassigned) [Example 4]
3 | – | 1770 | – | 14.3 | 123 | 5730 | 82 | C=CC(=O)N1CCO[C@H](CN2CCC(Nc3cc(C(C)F)cn4c(C(C)C)cnc34)CC2)C1 (single isomer, unassigned) [Example 1]
4 | – | 2030 | – | 6.25 | 84.5 | 2920 | 13.8 | [2H]CC([2H])(C)c1cnc2c(NC3CCN(C[C@@H]4CN(C(=O)C=C)CCO4)CC3)cc(C(F)(F)F)cn12 (mixture of isomers) [Example 7, 1-[(2R)-2-[[4-[[3-[rac-1,2-dideuterio-1-methyl-ethyl]-6-(trifluoromethyl)imidazo[1,2-a]pyridin-8-yl]amino]-1-piperidyl]methyl]morpholin-4-yl]prop-2-en-1-one]
5 | 6360 | 3180 | 94.7 | 26.6 | 256 | – | – | C=CC(=O)N1CCO[C@H](CN2CCC(Nc3cc(C(C)F)cn4c(C(C)C)cnc34)CC2)C1 (single isomer, unassigned) [Example 2]
6 | – | 1610 | – | 3.96 | 67.4 | 3790 | 7.91 | [2H]C([2H])=C([2H])C(=O)N1CCO[C@H](CN2CCC(Nc3cc(C(F)(F)F)cn4c(C(C)C)cnc34)CC2)C1 [Example 6, 2,3,3-trideuterio-1-[(2R)-2-[[4-[[3-isopropyl-6-(trifluoromethyl)imidazo[1,2-a]pyridin-8-yl]amino]-1-piperidyl]methyl]morpholin-4-yl]prop-2-en-1-one]

Row | Compound | IC50 ([1]; 4 hours) [nM] | IC50 [2] [nM] | IC50 ([3]; 4 hours) [nM] | IC50 [4, 5] [nM] | IC50 [4, 6] [nM] | IC50 ([1]; Homo sapiens, HCT-116, 4 h) [nM] | IC50 ([3]; Homo sapiens, HCT-116, 4 h) [nM]
7 | C=CC(=O)N1CCO[C@H](CN2CCC(Nc3cc(C(F)(F)F)cn4c(C(C)C)cnc34)CC2)C1 [Example 8, 1-[(2R)-2-[[4-[[3-isopropyl-6-(trifluoromethyl)imidazo[1,2-a]pyridin-8-yl]amino]-1-piperidyl]methyl]morpholin-4-yl]prop-2-en-1-one] | – | 2140 | – | 5.74 | 65.6 | 2590 | 24.5
